Assay results published in patent publication US20220193013A1, “Pharmaceutical Composition for Treatment or Prevention of Multiple Inflammatory Disorders” (priority 2020, published 2022).
Where two headings read alike, the source gives them in different places.

Legend:
[1] = test system: acute lung injury plus hyperthermia, CD-1 mice; type: in vivo; details: for tolerability: mouse, in vivo
Procedure: This example provides results of a second modified acute lung injury plus hyperthermia study to evaluate the effect of denatonium acetate. The same procedure was used as in Example 7. Starting three days before the induction of lung injury, groups of six CD-1 mice each were treated prophylactically with vehicle or 92.4 mg/kg denatonium acetate (DA) (administered by twice-daily (BID) oral gavage (PO)) or with 3 mg/kg DA (administered by once-daily (QD) intraperitoneal (IP) injection). On Day 0, lung injury was induced by intratracheal instillation with 50 μL of 1 mg/mL bacterial lipopolysaccharide (LPS), and hyperthermia was induced by placing the animals in a 39° C. incubator. On Day 1 (i.e., 24 hours after induction), animals were euthanized and bronchoalveolar lavage fluid (BALF) was collected. The BALF specimens were assessed for cytokine concentrations (using a multiplex bead-based assay), and protein levels, and neutrophil counts (by fluorescence-activated cell sorting (FACS)). Additionally, lungs were collected, fixed, stained with Masson's trichrome, and assessed histologically. Three days of repeat PO dosing with 92.4 mg/kg DA (BID) or IP dosing with 3 mg/kg DA (QD) was well-tolerated in female CD-1 mice. […] This inference is consistent with the observation that deaths were seen both with vehicle and test article dosing. No other adverse clinical observations were noted during 3 days of test article administration. […] IL-13, MIP-1β, MCSF, and MIG. […] Thus, BID PO treatment with 92.4 mg/kg DA or QD IP injection with 3 mg/kg DA provided significant attenuation of the accumulation of multiple cytokines in the lungs of this mouse model of acute lung injury, along with nominal activity in counteracting neutrophil infiltration and lung damage in these animals.

[2] = test system: leptin-deficient (ob/ob) mice; experiment: body weight study in leptin-deficient (ob/ob) mice, 56 days; type: in vivo, mouse
Procedure: Therefore, ob/ob mice are a predictive in vivo model for these indications. This example provides results of a study of DA plus another compound (CQL) on body weight in leptin-deficient (ob/ob) mice. Vehicle group (N=14) were treated with distilled water by gavage BID, and DA (N=14) at a dose of 50 mg/kg by gavage BID. The study period was for 56 days+2-3 days testing period afterward. Body weight change measured 3X per week, food intake was measure twice per week, metabolic biomarkers (blood glucose, blood insulin, blood HbA1c, HDL, LDL, triglyceride and bile acid) were measured at beginning and end of study. Cytokine analysis was measured at end on Day 56.

[3] = IP 3 mg/kg QD, compared to vehicle
[4] = oral 92.4 mg/kg BID, compared to vehicle
[5] = DA 50 mg/kg BID, day 56, no significant difference
[6] = DA 50 mg/kg gavage BID, 56 days
[7] = DA 50 mg/kg gavage BID, compared to vehicle

## CC(=O)[O-].CC[N+](CC)(CC(=O)Nc1c(C)cccc1C)Cc1ccccc1 [DA, denatonium acetate]
[1]; IP 3 mg/kg QD
  BALF neutrophil counts (by FACS assay): nominal decreases
  BALF protein concentrations: nominal (but nonsignificant) changes
  severity of lung pathology (by histological scoring): nominal decreases in the severity
[1]; [3]
  BALF concentration of G-CSF: significant decreases
  BALF concentration of IL2: significant decreases
  BALF concentration of IL-3: significant decreases
  BALF concentration of IL-4: significant decreases
  BALF concentration of IL-13: significant decreases
  BALF concentration of IP-10: significant decreases
  BALF concentration of M-CSF: significant decreases
  BALF concentration of MCP-1: significant decreases
  BALF concentration of MIG: significant decreases
  BALF concentration of eotaxin: significant decreases
[1]; ip, 3 mg/kg
  tolerability: well-tolerated
[1]; po, 92.4 mg/kg
  tolerability: well-tolerated
[1]; oral 92.4 mg/kg BID
  BALF neutrophil counts (by FACS assay): nominal decreases
  BALF protein concentrations: nominal (but nonsignificant) changes
  severity of lung pathology (by histological scoring): nominal decreases in the severity
[1]; [4]
  BALF concentration of IL-2: significant decreases
  BALF concentration of IL-3: significant decreases
  BALF concentration of IL-10: significant decreases
  BALF concentration of IL-13: significant decreases
  BALF concentration of MCSF: significant decreases
  BALF concentration of MIG: significant decreases
  BALF concentration of MIP-1β: significant decreases
[2]; [5]
  IL-1β level, decreased by, compared to the vehicle group: 19.1%
  IL-6 level, decreased by, compared to the vehicle group: 61.4%
  MCP-1 level, decreased by, compared to the vehicle group: 20.9%
  RANTES level, decreased by, compared to the vehicle group: 1.7%
[2]; DA 50 mg/kg BID, day 56, p=0.026
  MIG (versus controls): significant decreases
[2]; DA 50 mg/kg BID, day 56, p=0.047
  Eotaxin (versus controls): significant decreases
[2]; DA 50 mg/kg gavage BID
  serum HDL levels: no significant effects
[2]; [6]
  body weight: no significant effect
  daily food consumption: no significant effect
  serum HBA1c levels: no significant effect
  serum glucose levels: significantly decreased
  serum insulin levels: no significant effect
[2]; [7]
  serum LDL levels: significantly lowered
  serum bile acids levels: significantly increased
  serum triglyceride levels: significantly lowered
